Reference: paper PMC9143880, “Improving Antimicrobial Activity and Physico-Chemical Properties by Isosteric Replacement of 2-Aminothiazole with 2-Aminooxazole” (Pharmaceuticals, 2022)
In brackets after ≈: the same amount, converted by molar mass. Like-named read-outs stand apart in the source and are kept apart here.

Legend:
[1] = tested on: G+ and G- bacteria; parameters: method as in PMID 24561667; conditions: whole cell, cited from earlier work
[2] = tested on: Escherichia coli FabH; parameters: method as in PMID 24561667; conditions: cited from earlier work
[3] = tested on: Candida albicans CCM 8320 (ATCC 24433); assay: Antifungal microdilution broth (EUCAST); conditions: for MIC: Candida albicans, 24 h, read-out: MIC CA; for MIC CA: 24h incubation
[4] = tested on: Staphylococcus aureus subsp. aureus CCM 4223 (ATCC 29213); assay: Antibacterial microdilution broth (EUCAST); type: cell-based; conditions: 24h incubation; for MIC: Staphylococcus aureus, read-out: MIC SA
[5] = tested on: Escherichia coli CCM 3954 (ATCC 25922); assay: Antibacterial microdilution broth (EUCAST); type: cell-based; conditions: 24h incubation; for MIC: Escherichia coli, read-out: MIC EC
[6] = tested on: Lichtheimia corymbifera CCM 8077; assay: Antifungal microdilution broth (EUCAST); conditions: for MIC: Lichtheimia corymbifera, CCM8077, 24 h, read-out: MIC LC; for MIC LC: 24h incubation
[7] = tested on: Staphylococcus aureus subsp. aureus (MRSA) CCM 4750 (ATCC 43300); assay: Antibacterial microdilution broth (EUCAST); type: cell-based; conditions: 24h incubation; for MIC: Staphylococcus aureus, read-out: MIC MRSA
[8] = tested on: Enterococcus faecalis CCM 4224 (ATCC 29212); assay: Antibacterial microdilution broth (EUCAST); type: cell-based; conditions: 24h incubation; for MIC: Enterococcus faecalis, read-out: MIC EF
[9] = tested on: Candida parapsilosis CCM 8260 (ATCC 22019); assay: Antifungal microdilution broth (EUCAST); conditions: for MIC: Lodderomyces parapsilosis, 24 h, read-out: MIC CP; for MIC CP: 24h incubation
[10] = tested on: Aspergillus flavus CCM 8363; assay: Antifungal microdilution broth (EUCAST); conditions: for MIC: Aspergillus flavus, CCM8363, 24 h, read-out: MIC AFla; for MIC AFla: 24h incubation
[11] = tested on: HepG2 cells; assay: HepG2 cytotoxicity screening (CellTiter 96); type: cell-based, human; conditions: for IC50: Homo sapiens, HepG2, 24 h, 24 h incubation, CellTiter 96, * above highest tested concentration, ** limited by insolubility in medium
[12] = tested on: Pseudomonas aeruginosa CCM 3955 (ATCC 27853); assay: Antibacterial microdilution broth (EUCAST); type: cell-based; conditions: 72h incubation; for MIC: Pseudomonas aeruginosa, read-out: MIC PA
[13] = RP-UHPLC lipophilicity parameter log k’w; type: physicochemical; conditions: for log k’w: RP-UHPLC, acetonitrile/water, log k extrapolated to 0% acetonitrile; for logkw: experimental lipophilicity parameter
In short: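 Retention was measured once per eluent composition: subtype I at 40/45/50% and subtype II at 20/30/40% acetonitrile in water, isocratic RP-UHPLC. log k values from these runs gave the lipophilicity index log k’w.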

[14] = tested on: Acinetobacter baumannii DSM 30007 (ATCC 19606); assay: Antibacterial microdilution broth (EUCAST); type: cell-based; conditions: 24h incubation; for MIC: Acinetobacter baumannii, read-out: MIC AB
[15] = tested on: Trichophyton interdigitale CCM 8377 (ATCC 9533); assay: Antifungal microdilution broth (EUCAST); conditions: for MIC: Trichophyton interdigitale, 72 h, read-out: MIC TI; for MIC TI: 72h incubation
[16] = tested on: M. smegmatis DSM 43465 (ATCC 607); assay: Antimycobacterial MIC, microdilution broth / resazurin; type: cell-based; conditions: Mycolicibacterium smegmatis; resazurin after 48 h; read-out: MIC M. smegmatis
[17] = tested on: Candida tropicalis CCM 8264 (ATCC 750); assay: Antifungal microdilution broth (EUCAST); conditions: for MIC: Candida tropicalis, 24 h, read-out: MIC CT; for MIC CT: 24h incubation
[18] = tested on: M. aurum DSM 43999 (ATCC 23366); assay: Antimycobacterial MIC, microdilution broth / resazurin; type: cell-based; conditions: Mycolicibacterium aurum; resazurin after 72 h; read-out: MIC M. aurum
[19] = tested on: Staphylococcus epidermidis CCM 4418 (ATCC 12228); assay: Antibacterial microdilution broth (EUCAST); type: cell-based; conditions: 24h incubation; for MIC: Staphylococcus epidermidis, read-out: MIC SE
[20] = tested on: Mycobacterium tuberculosis H37Ra ITM-M006710 (ATCC 9431); assay: Antimycobacterial MIC, microdilution broth / Alamar Blue (resazurin); type: cell-based; conditions: for MIC: Mycobacterium tuberculosis
[21] = tested on: Candida krusei CCM 8271 (ATCC 6258); assay: Antifungal microdilution broth (EUCAST); conditions: for MIC: Pichia kudriavzevii, 24 h, read-out: MIC CK; for MIC CK: 24h incubation
[22] = tested on: Aspergillus fumigatus ATCC 204305; assay: Antifungal microdilution broth (EUCAST); conditions: for MIC: Aspergillus fumigatus, ATCC204305, 24 h, read-out: MIC AF; for MIC AF: 24h incubation
[23] = tested on: bacterial MetAP (S. aureus, E. coli) vs hMetAP; parameters: method as in PMID 15664828; conditions: tested against S. aureus; cited from earlier work
[24] = tested on: M. kansasii DSM 44162 (ATCC 12478); assay: Antimycobacterial MIC, microdilution broth / resazurin; type: cell-based; conditions: Mycobacterium kansasii, read-out: MIC M. kansasii
[25] = tested on: M. avium DSM 44156 (ATCC 25291); assay: as above; type: cell-based, Mycobacterium avium; conditions: Mycobacterium avium; resazurin after 96 h; read-out: MIC M. avium
[26] = tested on: PC12 cells; parameters: method as in PMID 19125579; conditions: acting as a PARP inhibitor; cited from earlier work
[27] = tested on: Mycobacterium tuberculosis H37Ra ITM-M006710 (ATCC 9431); parameters: method as in PMID 30108959; conditions: cited from earlier work
[28] = 120 h, Middlebrook 7H9, resazurin after 120 h, read-out: Mtb H37Ra MIC

For `O=C(Nc1nc(-c2ccc(Br)cc2)cs1)c1cccc(Cl)c1` [C], the MIC ([1]; recalculated to µM) is given as 7.9 to 31.8 µM, the MIC [1] is given as 3.13 to 12.5 µg/mL and the IC50 [2] is given as 9.3 µM.

For `O=C(Nc1nccs1)c1ccccn1` [Compound 1a], the MIC [3] was > 500 µM, the MIC [4] was > 500 µM and the MIC [5] was > 500 µM. The MIC [6] was > 500 µM, the MIC [7] was > 500 µM and the MIC [8] was > 500 µM. For the same molecule, the MIC [9] was 500 µM (≈ 103 µg/mL), the MIC [10] was > 500 µM and the IC50 [11] was > 1000 µM. For the same molecule, the MIC [12] was > 500 µM, the “log k’w” value [13] was 1.857 and the logkw [13] was 1.857. The MIC [14] was > 500 µM, the MIC [15] was 500 µM (≈ 103 µg/mL) and the MIC [16] was 62.5 µg/mL (≈ 305 µM). The MIC [17] was > 500 µM, the MIC [18] was 7.81 µg/mL (≈ 38.1 µM) and the MIC [19] was > 500 µM. The MIC [20, 28] was 31.2 µg/mL, the MIC [21] was 500 µM (≈ 103 µg/mL) and the MIC [22] was 500 µM (≈ 103 µg/mL). The “selectivity towards bacterial MetAP over human homologue” value [23] was 100 fold.

For `O=C(Nc1nc(-c2ccccc2)cs1)c1ccncc1` [Compound 13a], the MIC [3] was > 125 µM, the MIC [4] was > 125 µM and the MIC [5] was > 125 µM. The MIC [6] was > 125 µM, the MIC [7] was > 125 µM and the MIC [8] was > 125 µM. The MIC [9] was > 125 µM, the MIC [10] was > 125 µM and the IC50 [11] was > 100 µM. The SI ([11]; SI = IC50 (µM) HepG2 / MICH37Ra (µM)) was >3.6, the MIC [12] was > 125 µM and the “log k’w” value [13] was 2.190. The logkw [13] was 2.19, the MIC [14] was > 125 µM and the MIC ([24]; 96 h) was 7.81 µg/mL (≈ 27.8 µM). The MIC [15] was > 125 µM, the MIC [16] was ≥ 500 µg/mL and the MIC [17] was > 125 µM. The MIC [18] was ≥ 500 µg/mL, the MIC [19] was > 125 µM and the MIC [25] was ≥ 500 µg/mL. For the same molecule, the “Mtb H37Ra MIC” value ([20]; Middlebrook 7H9, resazurin after 120 h) was 7.81 µg/mL, the MIC [20, 28] was 3.91 to 7.81 µg/mL and the MIC ([20]; recalculated from µg/mL, read-out: MICH37Ra) was 27.8 µM. The MIC [21] was > 125 µM, the MIC [22] was > 125 µM and the cytoprotective effect [26] was “moderate cytoprotective effect”.

With `O=C(Nc1nc(-c2ccccc2)cs1)c1cnccn1` [Compound 17a] the “MIC CA” value [3] was “insoluble”, the “MIC SA” value [4] was “insoluble” and the “MIC EC” value [5] was “insoluble”. For the same molecule, the “MIC LC” value [6] was “insoluble”, the “MIC MRSA” value [7] was “insoluble” and the “MIC EF” value [8] was “insoluble”. For the same molecule, the “MIC CP” value [9] was “insoluble”, the “MIC AFla” value [10] was “insoluble” and the “MIC PA” value [12] was “insoluble”. The “log k’w” value [13] was 2.365, the logkw [13] was 2.365 and the “MIC AB” value [14] was “insoluble”. For the same molecule, the MIC ([24]; resazurin after 96 h) was > 50 µg/mL, the “MIC TI” value [15] was “insoluble” and the “Mtb H37Ra MIC” value [27] was >50 [11] µg/mL. The MIC [16] was > 250 µg/mL, the “MIC CT” value [17] was “insoluble” and the “MIC SE” value [19] was “insoluble”. For the same molecule, the “MIC CK” value [21] was “insoluble” and the “MIC AF” value [22] was “insoluble”.

For `O=C(Nc1nc(-c2ccccc2)cs1)c1cnc(Cl)cn1` [Compound 18a], the “MIC CA” value [3] was “insoluble”, the “MIC SA” value [4] was “insoluble” and the “MIC EC” value [5] was “insoluble”. The “MIC LC” value [6] was “insoluble”, the “MIC MRSA” value [7] was “insoluble” and the “MIC EF” value [8] was “insoluble”. For the same molecule, the “MIC CP” value [9] was “insoluble”, the “MIC AFla” value [10] was “insoluble” and the “MIC PA” value [12] was “insoluble”. The “log k’w” value [13] was 3.173, the logkw [13] was 3.173 and the “MIC AB” value [14] was “insoluble”. The MIC ([24]; resazurin after 96 h) was > 100 µg/mL, the “MIC TI” value [15] was “insoluble” and the “Mtb H37Ra MIC” value [27] was >100 [11] µg/mL. The MIC [16] was > 500 µg/mL, the “MIC CT” value [17] was “insoluble” and the “MIC SE” value [19] was “insoluble”. For the same molecule, the MIC [25] was > 100 µg/mL, the “MIC CK” value [21] was “insoluble” and the “MIC AF” value [22] was “insoluble”.
